pKd: −log10 of the molar value.
Target: T1, PKCε (Homo sapiens, UniProt Q02156)
T1 sequence (Q02156 1-737): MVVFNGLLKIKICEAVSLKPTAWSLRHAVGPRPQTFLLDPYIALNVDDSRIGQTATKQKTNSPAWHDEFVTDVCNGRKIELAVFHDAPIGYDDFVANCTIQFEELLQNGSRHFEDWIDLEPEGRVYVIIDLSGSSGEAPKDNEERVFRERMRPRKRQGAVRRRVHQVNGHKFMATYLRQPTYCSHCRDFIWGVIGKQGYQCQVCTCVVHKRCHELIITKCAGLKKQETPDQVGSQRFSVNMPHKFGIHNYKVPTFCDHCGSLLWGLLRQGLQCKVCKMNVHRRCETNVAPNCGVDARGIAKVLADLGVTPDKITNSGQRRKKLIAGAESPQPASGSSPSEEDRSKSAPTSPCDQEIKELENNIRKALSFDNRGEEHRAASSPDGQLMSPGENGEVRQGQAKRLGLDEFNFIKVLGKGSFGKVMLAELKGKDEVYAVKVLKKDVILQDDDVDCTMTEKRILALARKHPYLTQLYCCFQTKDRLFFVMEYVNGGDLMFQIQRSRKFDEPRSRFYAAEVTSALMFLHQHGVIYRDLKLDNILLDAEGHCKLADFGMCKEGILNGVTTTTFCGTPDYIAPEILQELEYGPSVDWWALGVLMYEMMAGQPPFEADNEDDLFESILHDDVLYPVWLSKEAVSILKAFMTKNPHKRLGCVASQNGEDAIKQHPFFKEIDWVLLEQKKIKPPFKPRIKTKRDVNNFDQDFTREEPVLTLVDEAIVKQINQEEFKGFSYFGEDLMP
Experiment: SPR
Assay type: binding

Compound `COc1cccc2c1C(=O)c1c(O)c3c(c(O)c1C2=O)C[C@@](O)(C(=O)CO)C[C@@H]3O[C@H]1C[C@H](N)[C@H](O)[C@H](C)O1` [Dox, Doxorubicin] has a pKd of 4.35.

From PMC10173194 (Journal of Advanced Research, 2022)
